Values quoted from earlier work, collected in patent US20220409591A1, “Pharmaceutical Formulations for Managing Uric Acid Content in Human Body” (ZYCIE TECHNOLEGAL LLP, priority 2019, published 2022).

Tests used:
[1] = known

bioavailability [1]: more than 80% | mean terminal elimination half-life [1]: 5 to 8 h | BCS class (poorly water-soluble drug): BCS Class II
Compound: Cc1nc(-c2ccc(OCC(C)C)c(C#N)c2)sc1C(=O)O [febuxostat, 2-[3-cyano-4-(2-methylpropoxy)phenyl]-4-methylthiazole-5-carboxylic acid]
